In ChEMBL document CHEMBL1201862, “PubChem BioAssay data set” (2004):
Activity calls are given as the source filed them.

Columns and labels:
[1] = molecular target: Voltage-dependent T-type calcium channel subunit alpha-1H (Homo sapiens, UniProt O95180); type: functional;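 note: channel activity triggered by adding a high calcium stimulation buffer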
[2] = molecular target: Eukaryotic translation initiation factor 4E (Mus musculus, UniProt P63073); experiment: eIF4E–eIF4G protein interaction inhibitors, dose response, biochemical, TR-FRET (AID 855); type: functional;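 note: potency for disrupting eIF4E binding to eIF4GI seen as loss of FRET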
[3] = molecular target: Glucose-6-phosphate 1-dehydrogenase (Homo sapiens, UniProt P11413); experiment: human G6PD enzyme inhibitors, dose response, selectivity assay for P. falciparum G6PD inhibitor project, biochemical, fluorescence (AID 504792); type: functional
[4] = Luminescence Cell-Based Dose Confirmation HTS to Identify Activators of 5'UTR Stem-Loop Driven Alpha-Synuclein mRNA Translation in H4 Neuroglioblastoma Cells. [Related pubchem assays: 1829 (Project Summary), 1814 (Primary HTS)]; type: functional
[5] = Luminescence Cell-Based Dose Response HTS to Identify Activators of Luciferase Translation or Activity in H4 […] Cells. [Related pubchem assays: 1829 (Project Summary), 1814 (Primary HTS)]; type: functional
[6] = tested on: H4; experiment: Luminescence Cell-Based Dose Response HTS to Identify Activators of 5'UTR Stem-Loop Driven Prion Protein mRNA Translation in H4 Neuroglioblastoma Cells. [Related pubchem assays: 1829 (Project Summary), 1814 (Primary HTS)]; type: functional; details: Homo sapiens
[7] = molecular target: T1, Polyadenylate-binding protein 1 (Homo sapiens, UniProt P11940); experiment: PABP1 MLLE–PAM2 interaction inhibitors, dose response, miRNA deadenylation inhibitor project, biochemical, fluorescence polarization, Cy5-PAM2 peptide, secondary (AID 602260); type: functional; details: read-out: IC50_Mean
[8] = molecular target: T1, Polyadenylate-binding protein 1; experiment: PABP1 MLLE–PAM2 binding inhibitor potency, dose response, biochemical, fluorescence polarization, FITC-PAM2 peptide (AID 602259); type: functional; details: read-out: IC50_Mean
[9] = molecular target: FAD-linked sulfhydryl oxidase ALR (Homo sapiens, UniProt P55789); experiment: inhibitors of human ALR sulfhydryl oxidase, dose response, biochemical, H2O2 detection, luminescence, cherry-pick (AID 493248)
[10] = tested on: P388/ADR; experiment: cells; type: functional
[11] = tested on: SN12K1; experiment: cells; type: functional; details: Homo sapiens
[12] = molecular target: Cytochrome P450 2D6 (Homo sapiens, UniProt P10635);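 note: CYP2D6 member of a cytochrome P450 panel assay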
[13] = molecular target: Ras and Rab interactor 1/Tyrosine-protein kinase ABL1 (Homo sapiens, UniProt P00519+Q13671); type: functional;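 note: biochemical TR-FRET dose-response test measuring inhibition of binding between Rin1 and Abl proteins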
[14] = inhibitors of HIV Env-driven cell fusion, dose response, cherry-pick (AID 652057); type: functional, cell-based
[15] = inhibitors of clade B AD8 Env fusion, dose response, cell-based, cherry-pick (AID 652062); type: functional;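 note: luciferase signal from cell-cell fusion driven by HIV-1 clade B AD8 Env; potency is for inhibitors of fusion seen as a drop in luminescence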
[16] = molecular target: Paired box protein Pax-8 (Homo sapiens, UniProt Q06710); experiment: inhibitors of PAX8-driven TPO luciferase reporter, dose response, RMG-I cells, cherry-pick (AID 687027); type: functional, cell-based;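 note: luciferase reporter driven by Pax8 target thyroperoxidase promoter measured by SteadyGlo luminescence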
[17] = cytotoxicity in OVCAR8 ovarian cancer cells, dose response, PAX8 project, cell-based, plate reader, dry powder samples (AID 743197); type: functional; details: OVCAR-8
[18] = molecular target: T2, Caspase-6 (Homo sapiens, UniProt P55212); experiment: human caspase-6 inhibitors, dose response, biochemical, VEID-R110 fluorescence, cherry-pick (AID 720632)
T2 sequence (P55212 whole entry): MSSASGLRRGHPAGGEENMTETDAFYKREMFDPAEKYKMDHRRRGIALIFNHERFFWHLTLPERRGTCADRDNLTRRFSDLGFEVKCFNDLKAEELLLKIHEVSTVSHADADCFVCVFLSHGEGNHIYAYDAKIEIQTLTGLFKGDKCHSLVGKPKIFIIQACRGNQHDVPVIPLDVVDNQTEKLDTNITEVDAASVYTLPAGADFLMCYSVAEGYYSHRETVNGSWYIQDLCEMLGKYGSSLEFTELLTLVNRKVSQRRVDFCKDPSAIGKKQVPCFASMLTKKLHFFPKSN

[19] = A549 cell cytotoxicity, dose response, cytotoxicity control, plate reader, cherry-pick, antagonist series (AID 743412); type: functional, cell-based
[20] = HepG2 cell cytotoxicity, dose response, cytotoxicity control, plate reader, cherry-pick, antagonist series (AID 743416); type: functional, cell-based
[21] = LGR2 antagonists, dose response, cell-based, HEK293, CRE-luciferase reporter, cherry pick, set 2 (AID 743343); type: functional;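 note: transfected cells were stimulated with diluted bursicon conditioned medium after compound addition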
[22] = MC4R antagonists, dose response, counter-screen for LGR2 antagonist project, cell-based, plate reader, cherry pick (AID 743444); type: functional;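 note: transfected HEK 293 cells stimulated with alpha-MSH peptide; potency of inhibitors of the alpha-MSH evoked signal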
[23] = HEK293 cell cytotoxicity, dose response, cytotoxicity control, plate reader, cherry-picked samples (AID 743446); type: functional, cell-based
[24] = tested on: HEK293; experiment: NOD1 signaling inhibitors, primary screen, cell-based, luminescence, uHTS (AID 1578); type: functional; details: Homo sapiens
[25] = tested on: HEK293; experiment: cells; type: functional, cell-based; details: Homo sapiens
[26] = tested on: HEK293; experiment: cells; type: functional, cell-based; details: Homo sapiens; remark: listed apart in the source
[27] = tested on: HEK293; experiment: NOD2 signaling inhibitors in MDP-stimulated cells, cell-based, uHTS, luminescence (AID 2001); type: functional; details: Homo sapiens
[28] = P. falciparum 3D7-ScDHODH growth inhibitors, dose response, SYBR Green, dry powder samples (AID 1159570); type: functional, cell-based;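 note: parasite growth measured after 72 hours of compound exposure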
[29] = P. falciparum Dd2 growth inhibitors, dose response, SYBR Green, cherry-picked samples (AID 1159567); type: functional, cell-based
[30] = P. falciparum Dd2 growth inhibitors, dose response, SYBR Green, dry powder samples (AID 1159566); type: functional, cell-based;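 note: potency for growth inhibition with lower SYBR green DNA signal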
[31] = P. falciparum ATP4 D1247Y mutant growth inhibitors, dose response, NITD609-resistant line, SYBR Green, dry powder (AID 1159571); type: functional, cell-based;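 note: parasites synchronized at ring stage by sorbitol before testing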

Chain of Eukaryotic translation initiation factor 4E (P63073 whole entry): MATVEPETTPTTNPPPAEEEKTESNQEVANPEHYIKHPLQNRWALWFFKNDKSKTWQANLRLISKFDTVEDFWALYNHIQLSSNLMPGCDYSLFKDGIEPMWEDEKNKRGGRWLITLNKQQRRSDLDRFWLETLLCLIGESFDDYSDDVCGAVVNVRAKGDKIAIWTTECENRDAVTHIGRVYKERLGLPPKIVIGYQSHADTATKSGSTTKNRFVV
T1 sequence (P11940 whole entry): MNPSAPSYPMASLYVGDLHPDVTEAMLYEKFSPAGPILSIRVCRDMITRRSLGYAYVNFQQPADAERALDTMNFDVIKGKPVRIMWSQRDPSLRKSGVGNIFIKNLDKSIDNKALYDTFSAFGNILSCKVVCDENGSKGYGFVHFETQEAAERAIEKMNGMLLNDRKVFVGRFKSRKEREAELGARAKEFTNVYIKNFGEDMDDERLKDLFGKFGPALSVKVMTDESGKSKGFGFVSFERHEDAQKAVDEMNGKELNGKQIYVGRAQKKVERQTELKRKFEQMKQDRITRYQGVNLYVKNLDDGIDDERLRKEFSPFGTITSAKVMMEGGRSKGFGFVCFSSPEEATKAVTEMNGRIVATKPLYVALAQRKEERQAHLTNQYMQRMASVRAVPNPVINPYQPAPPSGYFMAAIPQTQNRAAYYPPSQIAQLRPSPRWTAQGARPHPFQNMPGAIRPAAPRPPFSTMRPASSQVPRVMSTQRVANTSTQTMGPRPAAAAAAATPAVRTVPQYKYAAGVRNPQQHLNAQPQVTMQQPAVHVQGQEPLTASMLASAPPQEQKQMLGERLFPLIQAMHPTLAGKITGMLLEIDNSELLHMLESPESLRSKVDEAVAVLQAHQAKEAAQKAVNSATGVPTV
Chain of Glucose-6-phosphate 1-dehydrogenase (P11413 whole entry): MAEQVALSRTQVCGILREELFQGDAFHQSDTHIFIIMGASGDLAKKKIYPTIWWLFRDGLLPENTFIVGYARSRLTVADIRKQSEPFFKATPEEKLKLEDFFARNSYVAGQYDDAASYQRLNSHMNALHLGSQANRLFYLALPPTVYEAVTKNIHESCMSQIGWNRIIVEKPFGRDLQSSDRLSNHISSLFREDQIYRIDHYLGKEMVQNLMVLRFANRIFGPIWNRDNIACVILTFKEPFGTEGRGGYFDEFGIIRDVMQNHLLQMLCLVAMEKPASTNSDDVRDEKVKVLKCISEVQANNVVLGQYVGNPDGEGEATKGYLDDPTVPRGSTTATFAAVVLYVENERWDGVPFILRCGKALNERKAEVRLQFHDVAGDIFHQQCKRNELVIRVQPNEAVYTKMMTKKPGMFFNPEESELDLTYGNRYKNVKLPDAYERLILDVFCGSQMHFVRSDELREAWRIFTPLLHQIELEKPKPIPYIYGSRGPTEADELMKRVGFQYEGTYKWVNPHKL
Chain of Ras and Rab interactor 1/Tyrosine-protein kinase ABL1 (P00519 whole entry, the tested form may be a part): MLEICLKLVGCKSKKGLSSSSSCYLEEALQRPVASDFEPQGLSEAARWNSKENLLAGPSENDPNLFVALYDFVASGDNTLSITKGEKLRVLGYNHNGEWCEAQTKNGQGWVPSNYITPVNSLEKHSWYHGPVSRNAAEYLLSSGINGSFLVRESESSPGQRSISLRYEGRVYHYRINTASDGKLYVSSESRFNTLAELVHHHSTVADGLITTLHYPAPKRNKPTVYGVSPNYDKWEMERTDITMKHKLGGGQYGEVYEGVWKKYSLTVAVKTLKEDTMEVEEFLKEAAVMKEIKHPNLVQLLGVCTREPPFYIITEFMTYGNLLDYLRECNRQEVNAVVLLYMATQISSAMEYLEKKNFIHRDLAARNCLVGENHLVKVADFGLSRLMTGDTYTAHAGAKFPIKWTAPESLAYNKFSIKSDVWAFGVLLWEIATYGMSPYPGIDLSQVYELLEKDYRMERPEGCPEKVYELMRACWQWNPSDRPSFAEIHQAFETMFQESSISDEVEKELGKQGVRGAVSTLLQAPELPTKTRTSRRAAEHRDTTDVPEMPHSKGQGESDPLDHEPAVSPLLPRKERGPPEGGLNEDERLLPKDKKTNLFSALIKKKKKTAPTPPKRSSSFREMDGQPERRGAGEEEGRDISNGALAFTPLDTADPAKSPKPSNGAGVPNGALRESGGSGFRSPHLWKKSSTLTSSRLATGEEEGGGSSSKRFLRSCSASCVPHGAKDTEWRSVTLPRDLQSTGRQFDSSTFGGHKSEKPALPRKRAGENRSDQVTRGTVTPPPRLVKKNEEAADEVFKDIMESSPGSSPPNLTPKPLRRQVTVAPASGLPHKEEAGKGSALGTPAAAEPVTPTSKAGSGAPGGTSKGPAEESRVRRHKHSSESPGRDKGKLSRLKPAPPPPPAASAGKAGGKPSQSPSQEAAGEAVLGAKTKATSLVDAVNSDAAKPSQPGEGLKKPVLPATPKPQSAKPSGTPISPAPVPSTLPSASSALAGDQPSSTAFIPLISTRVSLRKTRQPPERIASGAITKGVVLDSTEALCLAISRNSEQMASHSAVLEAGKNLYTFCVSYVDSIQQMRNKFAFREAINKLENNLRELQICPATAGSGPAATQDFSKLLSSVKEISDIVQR
Chain of Ras and Rab interactor 1/Tyrosine-protein kinase ABL1 (Q13671 whole entry, the tested form may be a part): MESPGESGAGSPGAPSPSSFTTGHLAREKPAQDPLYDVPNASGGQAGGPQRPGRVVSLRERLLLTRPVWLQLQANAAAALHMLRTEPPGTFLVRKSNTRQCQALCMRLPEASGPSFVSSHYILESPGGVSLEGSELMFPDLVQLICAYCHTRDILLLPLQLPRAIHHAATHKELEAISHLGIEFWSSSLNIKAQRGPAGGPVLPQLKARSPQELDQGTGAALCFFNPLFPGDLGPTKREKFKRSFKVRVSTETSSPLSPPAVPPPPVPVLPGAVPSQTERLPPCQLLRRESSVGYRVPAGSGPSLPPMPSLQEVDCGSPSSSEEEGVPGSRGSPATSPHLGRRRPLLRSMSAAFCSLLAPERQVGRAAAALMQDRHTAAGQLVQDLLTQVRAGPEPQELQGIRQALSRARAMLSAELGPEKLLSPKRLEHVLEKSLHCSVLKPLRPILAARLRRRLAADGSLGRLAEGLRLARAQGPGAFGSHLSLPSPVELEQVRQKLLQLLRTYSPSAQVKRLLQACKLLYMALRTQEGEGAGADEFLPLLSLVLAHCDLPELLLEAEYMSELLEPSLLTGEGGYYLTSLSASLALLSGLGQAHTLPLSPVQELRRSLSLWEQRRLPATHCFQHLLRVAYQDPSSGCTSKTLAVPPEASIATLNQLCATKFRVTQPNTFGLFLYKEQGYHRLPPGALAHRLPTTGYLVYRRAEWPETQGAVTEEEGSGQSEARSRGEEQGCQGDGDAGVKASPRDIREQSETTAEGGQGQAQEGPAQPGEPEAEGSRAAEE
Chain of FAD-linked sulfhydryl oxidase ALR (P55789 whole entry): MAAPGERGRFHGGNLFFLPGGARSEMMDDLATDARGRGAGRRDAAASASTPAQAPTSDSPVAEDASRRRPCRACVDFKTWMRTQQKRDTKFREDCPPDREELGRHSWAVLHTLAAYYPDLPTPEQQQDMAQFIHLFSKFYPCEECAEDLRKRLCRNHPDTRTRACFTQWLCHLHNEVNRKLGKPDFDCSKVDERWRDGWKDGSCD
Chain of Paired box protein Pax-8 (Q06710 whole entry): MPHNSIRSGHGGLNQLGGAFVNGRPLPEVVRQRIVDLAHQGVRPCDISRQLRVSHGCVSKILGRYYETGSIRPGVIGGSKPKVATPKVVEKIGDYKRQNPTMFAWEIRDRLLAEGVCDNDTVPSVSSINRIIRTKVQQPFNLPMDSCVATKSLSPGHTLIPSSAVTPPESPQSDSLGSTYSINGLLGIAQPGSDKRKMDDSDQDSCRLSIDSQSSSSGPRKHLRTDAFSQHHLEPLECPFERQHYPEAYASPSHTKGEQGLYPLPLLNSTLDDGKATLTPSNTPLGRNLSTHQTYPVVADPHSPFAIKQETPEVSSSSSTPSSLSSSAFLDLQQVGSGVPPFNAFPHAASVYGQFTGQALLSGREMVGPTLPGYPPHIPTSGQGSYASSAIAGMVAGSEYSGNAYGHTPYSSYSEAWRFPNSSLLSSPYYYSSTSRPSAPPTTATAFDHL
Chain of Cytochrome P450 2D6 (P10635 whole entry): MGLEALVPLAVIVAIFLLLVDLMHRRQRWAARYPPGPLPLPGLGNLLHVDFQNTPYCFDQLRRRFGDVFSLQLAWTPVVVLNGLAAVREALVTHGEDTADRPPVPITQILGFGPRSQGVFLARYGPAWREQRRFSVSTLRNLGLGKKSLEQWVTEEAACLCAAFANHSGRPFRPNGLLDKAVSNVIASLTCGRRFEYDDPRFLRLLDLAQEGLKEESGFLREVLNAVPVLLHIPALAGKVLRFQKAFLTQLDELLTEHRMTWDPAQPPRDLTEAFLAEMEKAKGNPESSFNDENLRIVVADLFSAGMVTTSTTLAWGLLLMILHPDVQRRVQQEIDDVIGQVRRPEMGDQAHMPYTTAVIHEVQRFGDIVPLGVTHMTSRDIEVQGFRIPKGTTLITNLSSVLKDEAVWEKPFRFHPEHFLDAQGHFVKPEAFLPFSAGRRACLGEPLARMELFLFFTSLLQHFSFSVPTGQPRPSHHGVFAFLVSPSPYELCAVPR

Structure (SMILES): Cc1ccc(CNC(=O)Cn2cccc2C(=O)c2ccccc2)cc1
- EC50 [1]: 3.77 µM (active)

Structure (SMILES): Cc1c(NC(=O)c2cc(CC(C)C)on2)c(=O)n(-c2ccccc2)n1C
- IC50 [2]: > 64 µM (inactive)

Structure (SMILES): CCSc1nc2cc(S(=O)(=O)N3CCOCC3)ccc2o1
- IC50 [3]: > 80 µM (inactive)

Structure (SMILES): Nc1cc(Nc2ccc(Br)cc2)nc(N)n1
- EC50 [4]: > 120 µM (not active)
- EC50 [5]: 17.4 µM (active)
- EC50 [6]: 11.3 µM (active)
- IC50 [7]: > 66 µM (inactive)
- IC50 [8]: 55.4 µM (inactive)

Structure (SMILES): [O-][N+](=Cc1ccccc1)c1ccc(Cl)cc1
- IC50 [3]: 57 µM (inactive)

Structure (SMILES): COc1ccc(NC(=S)NC2CCS(=O)(=O)C2)cc1 (stereo not drawn)
- IC50 [2]: > 64 µM (inactive)

Structure (SMILES): O=C(O)CCCN1C(=O)C(O)=C(C(=O)c2ccc(Cl)cc2)C1c1ccccc1 (stereo not drawn)
- IC50 [7]: > 66 µM (inactive)
- IC50 [8]: > 66 µM (inactive)

Structure (SMILES): COc1ccc(N2CCN(C(=O)CCNC(=O)Cn3ccc4ccccc4c3=O)CC2)cc1
- IC50 [2]: 50 µM (inactive)
- AC50 [9]: 8.16 µM (active)

Structure (SMILES): CCN(CC)CC[n+]1ccc2c(C)c3[nH]c4ccccc4c3c(C)c2c1
- GI50 [10]: 19.1 µM (inactive)
- GI50 [11]: 0.124 µM (active)
- AC50 [12]: 3.16 µM (inconclusive)

Structure (SMILES): COc1ccccc1N(C(=O)c1snc(C(N)=O)c1N)C(C(=O)NCc1ccccc1)c1ccc(O)cc1 (stereo not drawn)
- IC50 [13]: 50 µM (inactive)

Structure (SMILES): COc1ccc(CN(C)CCCn2ccc(NC(=O)OCc3ccccc3)nc2=O)cc1OC
- IC50 [13]: 23.5 µM (inactive)

Structure (SMILES): CCOC(=O)c1cc(Cl)ccc1OC(N)=O
- GI50 [11]: > 100 µM (inactive)

Structure (SMILES): Cc1ccc(S(=O)(=O)N(C)C[C@@H]2Oc3ncc(-c4cc5ccccc5o4)cc3C(=O)N([C@H](C)CO)C[C@@H]2C)cc1
- AC50 [14]: 17.3 µM (active)
- AC50 [15]: 36.2 µM (active)

Structure (SMILES): Cc1ccc(S(=O)(=O)Nc2ccc3c(c2)C(=O)N([C@@H](C)CO)C[C@H](C)[C@@H](CN(C)Cc2ccc(Cl)c(Cl)c2)OCCCC[C@@H](C)O3)cc1
- AC50 [16]: 5.22 µM (active)
- AC50 [17]: > 70 µM (inactive)

Structure (SMILES): O=[N+]([O-])c1ccc(F)c2c(O)[nH]nc12
- AC50 [18]: 6.73 µM (active)

Structure (SMILES): OC(c1ccccc1)(c1ccccc1)C1CCN(CCCOc2ccc(C(F)(F)F)cc2)CC1
- AC50 [19]: 9.23 µM (active)
- AC50 [20]: 10.7 µM (active)
- AC50 [21]: 18.8 µM (active)
- AC50 [22]: 11.6 µM (active)
- AC50 [23]: 16.6 µM (active)

Structure (SMILES): COC(=O)c1scc(C#N)c1N/N=C(\C#N)S(=O)(=O)c1ccc(Cl)cc1
- EC50 [24]: 6.08 µM (active)
- IC50 [25]: > 20 µM (inactive)
- IC50 [26]: > 20 µM (inactive)
- IC50 [27]: 18.8 µM (inactive)

Structure (SMILES): COc1ccc(NC(=O)N(C)C[C@@H]2Oc3cc(-c4ccc(C)cc4)ccc3S(=O)(=O)N([C@H](C)CO)C[C@@H]2C)cc1
- AC50 [28]: 3.13 µM (active)
- AC50 [29]: 2.58 µM (active)
- AC50 [30]: 2.25 µM (active)
- AC50 [31]: 3.25 µM (active)
